Test results taken from patent publication US20240190880A1 (THE REGENTS OF THE UNIVERSITY OF MICHIGAN, priority 2021, published 2024).

Molecular target: T1, ER (Homo sapiens, UniProt P03372)
T1 construct: host or cells: T47D and MCF7 human breast cancer cells
T1 sequence (P03372 1-595): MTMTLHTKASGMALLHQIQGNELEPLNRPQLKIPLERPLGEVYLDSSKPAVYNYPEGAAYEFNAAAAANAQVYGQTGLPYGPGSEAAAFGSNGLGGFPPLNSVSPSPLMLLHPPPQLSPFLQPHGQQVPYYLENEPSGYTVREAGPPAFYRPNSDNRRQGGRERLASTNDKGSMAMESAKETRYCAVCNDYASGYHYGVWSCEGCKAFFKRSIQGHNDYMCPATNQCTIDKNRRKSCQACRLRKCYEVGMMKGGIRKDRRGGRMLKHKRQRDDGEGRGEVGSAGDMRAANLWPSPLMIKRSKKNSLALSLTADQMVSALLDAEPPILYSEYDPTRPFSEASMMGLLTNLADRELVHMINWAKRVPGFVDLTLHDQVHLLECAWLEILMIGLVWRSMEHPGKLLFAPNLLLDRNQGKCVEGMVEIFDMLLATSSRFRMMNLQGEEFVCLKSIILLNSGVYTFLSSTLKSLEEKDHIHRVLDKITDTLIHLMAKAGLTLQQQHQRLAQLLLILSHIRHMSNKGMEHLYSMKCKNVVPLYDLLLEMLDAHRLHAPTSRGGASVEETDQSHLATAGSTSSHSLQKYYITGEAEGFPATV
Assay: ER degradation activity, in-cell western blot analysis in T47D cells
Assay type: cell-based
Details: 16 hours, Table A does not say which cell line (T47D or MCF7), read-out: Potency (DC50)
Method in brief: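 T47D cells cultured in DMEM with 10% FBS, treated with compounds (final 0.5% DMSO) for 16 h. ER level measured by in-cell western with anti-rabbit-680/anti-mouse-800 near-infrared detection. Relative ER percentage calculated against untreated and DMSO-treated wells set as 100%.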

DC50	Structure (SMILES)
> 0.1 µM	O=C1CCC(N2C(=O)c3cc4c(cc3C2=O)CN(CC(=O)N2CC3(CC(Oc5ccc([C@@H]6c7ccc(O)cc7CC[C@H]6c6ccccc6)cc5)C3)C2)C4)C(=O)N1 (stereo partly drawn) [E 221, 2-(2,6-dioxopiperidin-3-yl)-6-(2-(6-(4-((1R,2R)-6-hydroxy-2-phenyl-1,2,3,4-tetrahydronaphthalen-1-yl)phenoxy)-2-azaspiro[3.3]heptan-2-yl)-2-oxoethyl)-6,7-dihydropyrrolo[3,4-f]isoindole-1,3(2H,5H)-dione]
> 0.1 µM	O=C1CCC(N2C(=O)c3cc4c(cc3C2=O)CN(C(=O)CN2CCC3(CC2)CC(Oc2ccc([C@@H]5c6ccc(O)cc6CC[C@@H]5c5ccccc5)cc2)C3)C4)C(=O)N1 (stereo partly drawn) [E 222, 2-(2,6-dioxopiperidin-3-yl)-6-(2-(2-(4-((1R,2S)-6-hydroxy-2-phenyl-1,2,3,4-tetrahydronaphthalen-1-yl)phenoxy)-7-azaspiro[3.5]nonan-7-yl)acetyl)-6,7-dihydropyrrolo[3,4-f]isoindole-1,3(2H,5H)-dione]
> 0.1 µM	O=C1CCC(N2C(=O)c3cc4c(cc3C2=O)CN(CC(=O)N2CC3(CCC(Oc5ccc([C@@H]6c7ccc(O)cc7CC[C@@H]6c6ccccc6)cc5)CC3)C2)C4)C(=O)N1 (stereo partly drawn) [E 223, 2-(2,6-dioxopiperidin-3-yl)-6-(2-(7-(4-((1R,2S)-6-hydroxy-2-phenyl-1,2,3,4-tetrahydronaphthalen-1-yl)phenoxy)-2-azaspiro[3.5]nonan-2-yl)-2-oxoethyl)-6,7-dihydropyrrolo[3,4-f]isoindole-1,3(2H,5H)-dione]
> 0.1 µM	O=C1CCC(N2C(=O)c3cc4c(cc3C2=O)CN(CC(=O)N2CCC3(CCC(Oc5ccc([C@@H]6c7ccc(O)cc7CC[C@@H]6c6ccccc6)cc5)CC3)CC2)C4)C(=O)N1 (stereo partly drawn) [E 224, 2-(2,6-dioxopiperidin-3-yl)-6-(2-(9-(4-((1R,2S)-6-hydroxy-2-phenyl-1,2,3,4-tetrahydronaphthalen-1-yl)phenoxy)-3-azaspiro[5.5]undecan-3-yl)-2-oxoethyl)-6,7-dihydropyrrolo[3,4-f]isoindole-1,3(2H,5H)-dione]
> 0.1 µM	C[C@@H]1Cc2cc(O)ccc2[C@@H](c2c(F)cc(N3CCC4(CCN(C(=O)CN5Cc6cc7c(cc6C5)C(=O)N(C5CCC(=O)NC5=O)C7=O)CC4)CC3)cc2F)N1CC(F)(F)F (stereo partly drawn) [E 225, 6-(2-(9-(3,5-difluoro-4-((1S,3R)-6-hydroxy-3-methyl-2-(2,2,2-trifluoroethyl)-1,2,3,4-tetrahydroisoquinolin-1-yl)phenyl)-3,9-diazaspiro[5.5]undecan-3-yl)-2-oxoethyl)-2-(2,6-dioxopiperidin-3-yl)-6,7-dihydropyrrolo[3,4-f]isoindole-1,3(2H,5H)-dione]
0.01 to 0.1 µM	C[C@@H]1Cc2c([nH]c3ccccc23)[C@@H](c2c(F)cc(N3CCC4(CCN(C(=O)CN5Cc6cc7c(cc6C5)C(=O)N(C5CCC(=O)NC5=O)C7=O)CC4)CC3)cc2F)N1CC(F)(F)F (stereo partly drawn) [E 226, 6-(2-(9-(3,5-difluoro-4-((1R,3R)-3-methyl-2-(2,2,2-trifluoroethyl)-2,3,4,9-tetrahydro-1H-pyrido[3,4-b]indol-1-yl)phenyl)-3,9-diazaspiro[5.5]undecan-3-yl)-2-oxoethyl)-2-(2,6-dioxopiperidin-3-yl)-6,7-dihydropyrrolo[3,4-f]isoindole-1,3(2H,5H)-dione]
0.01 to 0.1 µM	C[C@@H]1Cc2c([nH]c3ccccc23)[C@@H](c2c(F)cc(N3CCC4(CC3)CN(C(=O)CN3Cc5cc6c(cc5C3)C(=O)N(C3CCC(=O)NC3=O)C6=O)C4)cc2F)N1CC(F)(F)F (stereo partly drawn) [E 227, 6-(2-(7-(3,5-difluoro-4-((1R,3R)-3-methyl-2-(2,2,2-trifluoroethyl)-2,3,4,9-tetrahydro-1H-pyrido[3,4-b]indol-1-yl)phenyl)-2,7-diazaspiro[3.5]nonan-2-yl)-2-oxoethyl)-2-(2,6-dioxopiperidin-3-yl)-6,7-dihydropyrrolo[3,4-f]isoindole-1,3(2H,5H)-dione]
0.01 to 0.1 µM	C[C@@H]1Cc2c([nH]c3ccccc23)[C@@H](c2c(F)cc(N3CCC(C(=O)N4CCC(N5Cc6cc7c(cc6C5)C(=O)N(C5CCC(=O)NC5=O)C7=O)CC4)CC3)cc2F)N1CC(F)(F)F (stereo partly drawn) [E 228, 6-(1-(1-(3,5-difluoro-4-((1R,3R)-3-methyl-2-(2,2,2-trifluoroethyl)-2,3,4,9-tetrahydro-1H-pyrido[3,4-b]indol-1-yl)phenyl)piperidine-4-carbonyl)piperidin-4-yl)-2-(2,6-dioxopiperidin-3-yl)-6,7-dihydropyrrolo[3,4-f]isoindole-1,3(2H,5H)-dione]
0.01 to 0.1 µM	C[C@@H]1Cc2c([nH]c3ccccc23)[C@@H](c2c(F)cc(N3CC(C(=O)N4CC(N5Cc6cc7c(cc6C5)C(=O)N(C5CCC(=O)NC5=O)C7=O)C4)C3)cc2F)N1CC(F)F (stereo partly drawn) [E 229, 6-(1-(1-(4-((1R,3R)-2-(2,2-difluoroethyl)-3-methyl-2,3,4,9-tetrahydro-1H-pyrido[3,4-b]indol-1-yl)-3,5-difluorophenyl)azetidine-3-carbonyl)azetidin-3-yl)-2-(2,6-dioxopiperidin-3-yl)-6,7-dihydropyrrolo[3,4-f]isoindole-1,3(2H,5H)-dione]
0.01 to 0.1 µM	C[C@@H]1Cc2c([nH]c3ccccc23)[C@@H](c2c(F)cc(N3CC(C(=O)N4CC(CN5Cc6cc7c(cc6C5)C(=O)N(C5CCC(=O)NC5=O)C7=O)C4)C3)cc2F)N1CC(F)F (stereo partly drawn) [E 230, 6-((1-(1-(4-((1R,3R)-2-(2,2-difluoroethyl)-3-methyl-2,3,4,9-tetrahydro-1H-pyrido[3,4-b]indol-1-yl)-3,5-difluorophenyl)azetidine-3-carbonyl)azetidin-3-yl)methyl)-2-(2,6-dioxopiperidin-3-yl)-6,7-dihydropyrrolo[3,4-f]isoindole-1,3(2H,5H)-dione]
> 0.1 µM	C[C@@H]1Cc2c([nH]c3ccccc23)[C@@H](c2c(F)cc(N3CCC4(CCN(CC5Cc6cc7c(cc6C5)C(=O)N(C5CCC(=O)NC5=O)C7=O)CC4)CC3)cc2F)N1CC(F)(F)F (stereo partly drawn) [E 231, 6-((9-(3,5-difluoro-4-((1R,3R)-3-methyl-2-(2,2,2-trifluoroethyl)-2,3,4,9-tetrahydro-1H-pyrido[3,4-b]indol-1-yl)phenyl)-3,9-diazaspiro[5.5]undecan-3-yl)methyl)-2-(2,6-dioxopiperidin-3-yl)-6,7-dihydrocyclopenta[f]isoindole-1,3(2H,5H)-dione]
> 0.1 µM	C[C@@H]1Cc2c([nH]c3ccccc23)[C@@H](c2c(F)cc(N3CCC4(CC3)CN(CC3Cc5cc6c(cc5C3)C(=O)N(C3CCC(=O)NC3=O)C6=O)C4)cc2F)N1CC(F)F (stereo partly drawn) [E 232, 6-((7-(4-((1R,3R)-2-(2,2-difluoroethyl)-3-methyl-2,3,4,9-tetrahydro-1H-pyrido[3,4-b]indol-1-yl)-3,5-difluorophenyl)-2,7-diazaspiro[3.5]nonan-2-yl)methyl)-2-(2,6-dioxopiperidin-3-yl)-6,7-dihydrocyclopenta[f]isoindole-1,3(2H,5H)-dione]
> 0.1 µM	C[C@@H]1Cc2c([nH]c3ccccc23)[C@@H](c2c(F)cc(N3CCC(C(=O)N4CCC(CN5Cc6cc7c(cc6C5)C(=O)N(C5CCC(=O)NC5=O)C7=O)CC4)CC3)cc2F)N1CC(F)F (stereo partly drawn) [E 233, 6-((1-(1-(4-((1R,3R)-2-(2,2-difluoroethyl)-3-methyl-2,3,4,9-tetrahydro-1H-pyrido[3,4-b]indol-1-yl)-3,5-difluorophenyl)piperidine-4-carbonyl)piperidin-4-yl)methyl)-2-(2,6-dioxopiperidin-3-yl)-6,7-dihydropyrrolo[3,4-f]isoindole-1,3(2H,5H)-dione]
